Values quoted from earlier work, collected in publication PMC8216436, “Molecular docking and statistical optimization of taurocholate-stabilized galactose anchored bilosomes for the enhancement of sofosbuvir absorption and hepatic relative targeting efficiency” (Drug Delivery, 2020).

Legend:
[1] = 2017
[2] = test system: P-glycoprotein (P-gp); parameters: method as in Shen et al., 2019; settings: efflux from GIT membrane cells and hepatocytes; ref Shen et al., 2019
[3] = oral, ref Rodríguez-Torres, 2013, Kirby et al., 2015, Cuenca-Lopez et al.

**Q.** With CC(C)OC(=O)[C@H](C)N[P@](=O)(OC[C@H]1O[C@@H](n2ccc(=O)[nH]c2=O)[C@](C)(F)[C@@H]1O)Oc1ccccc1 [Sofosbuvir] as the compound, how does the “biopharmaceutics classification system class” value (high solubility and low permeability, ref Kirby et al., 2015) read?
**A.** class III

**Q.** And the partition coefficient (ref Amidon et al., 1995)?
**A.** about 1.6

**Q.** And the solubility (ref Amidon et al., 1995)?
**A.** ≥ 2000 µg/mL

**Q.** And the pKa (weak acid, ref Amidon et al., 1995)?
**A.** 9.6

**Q.** What about the “administered dose absorbed through the portal circulation” value [1, 3] of the same compound?
**A.** 36.4%

**Q.** What about the “hepatic availability of the administered dose” value [1, 3] of the same compound?
**A.** 26.94%

**Q.** What about the hepatic extraction [1, 3] of the same compound?
**A.** 74%

**Q.** What about the volume of distribution ([1]; ref Bhatia et al., 2014, Reznik & Ashby) of the same compound?
**A.** 127 L

**Q.** What about the “P-glycoprotein (P-gp) substrate” value [2] of the same compound?
**A.** substrate
